Laboratory results from patent US7101875B2, “Methods for treating arthritic disorders” (Wyeth, priority 2001, dated 2006).

Biological target: T1, cPLA2 (Homo sapiens, UniProt P47712)
T1 sequence (P47712 1-749): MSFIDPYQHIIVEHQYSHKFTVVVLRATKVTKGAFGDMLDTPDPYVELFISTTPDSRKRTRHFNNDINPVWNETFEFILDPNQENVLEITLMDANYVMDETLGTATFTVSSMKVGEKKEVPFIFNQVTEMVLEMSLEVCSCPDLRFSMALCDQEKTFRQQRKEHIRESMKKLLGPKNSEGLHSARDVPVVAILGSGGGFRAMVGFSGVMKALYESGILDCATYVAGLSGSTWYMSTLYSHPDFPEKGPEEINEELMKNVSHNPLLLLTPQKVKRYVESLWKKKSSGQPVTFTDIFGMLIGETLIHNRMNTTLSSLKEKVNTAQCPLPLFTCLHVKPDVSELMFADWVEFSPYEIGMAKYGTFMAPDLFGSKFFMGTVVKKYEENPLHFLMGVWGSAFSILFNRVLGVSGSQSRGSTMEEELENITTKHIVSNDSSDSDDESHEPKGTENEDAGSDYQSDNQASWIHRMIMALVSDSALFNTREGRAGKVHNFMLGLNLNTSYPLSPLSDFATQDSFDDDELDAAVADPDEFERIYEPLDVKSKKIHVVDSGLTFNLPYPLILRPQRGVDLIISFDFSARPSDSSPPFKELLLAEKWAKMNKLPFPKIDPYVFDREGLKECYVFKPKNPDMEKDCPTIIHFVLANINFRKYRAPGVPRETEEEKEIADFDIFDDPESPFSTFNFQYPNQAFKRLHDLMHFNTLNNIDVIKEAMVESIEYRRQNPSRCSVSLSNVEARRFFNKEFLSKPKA
Experiment: Coumarine Assay (hydrolysis of 7-hydroxycoumarinyl 6-heptenoate by cPLA2, fluorometric)
Type: biochemical
Details: 60 μM 7-hydroxycoumarinyl 6-heptenoate substrate, 4 μg cPLA2, pH 7.5, excitation 360 nm / emission 460 nm; read-out: Coumarin IC50
Experimental: Inhibitors were mixed with 200 μL assay buffer (80 mM Heped, pH 7.5, 1 mM EDTA) containing 60 μM 7-hydroxycoumarinyl 6-heptenoate. The reaction was initiated by adding 4 μg cPLA2 in 50 μL assay buffer. Hydrolysis of the 7-hydroxycounarimyl 6-heptenoate ester was monitored in a fluorometer by exciting at 360 nm and monitoring emission at 460 nm. Enzyme activity is proportional to the increase in emission at 460 nm per minute. In the presence of a cPLA2 inhibitor, the rate of increase is less.

Compound	IC50 [nM]
2-{2-[1-Benzhydryl-5-chloro-2-(2-phenylmethanesulfonylamino-ethyl)-1H-indol-3-yl]-ethoxy}-benzoic acid [Example 283]	500
4-[2-(1-benzhydryl-5-chloro-2-{2-[({2-[(3R,5S)-3,5-dimethylmorpholin-4-yl]ethyl}sulfonyl)amino]ethyl}-1H-indol-3-yl)ethoxy]benzoic acid [Example 250]	2100
4-{2-[1-Benzhydryl-5-chloro-2-{2-[({2-trifluoromethylsulfonylbenzene}-sulfonyl)amino]ethyl}-1H-indol-3-yl)propyl]benzoic acid [Example 208]	240
4-{2-[1-benzhydryl-5-chloro-2-(2-{[(2,6-dimethylbenzyl)sulfonyl]amino}ethyl)-1H-indol-3-yl]ethoxy}benzoic acid [Example 279]	160
Nc1ccccc1CS(=O)(=O)NCCc1cc(OCCc2cn(C(c3ccccc3)c3ccccc3)c3ccc(Cl)cc23)ccc1C(=O)O [Example 16, 2-(2-{[(2-Aminobenzyl)sulfonyl]amino}ethyl)-4-{2-[1-benzhydryl-5-chloro-1H-indol-3-yl]ethoxy}benzoic acid]	980
CC(Cc1ccc(C(=O)O)cc1)c1c(CCNS(=O)(=O)Cc2ccccc2[N+](=O)[O-])n(C(c2ccccc2)c2ccccc2)c2ccc(Cl)cc12 (stereo not drawn) [Example 56, 4-{2-[1-Benzhydryl-5-chloro-2-{2-[({2-nitrobenzyl}-sulfonyl)amino]ethyl}-1H-indol-3-yl)propyl]benzoic acid]	130
O=C(O)c1ccc(OCCc2c(CCNS(=O)(=O)Cc3ccc(Cl)c(Cl)n3)n(C(c3ccccc3)c3ccccc3)c3ccc(Cl)cc23)cc1 [Example 76]	400
COc1ccccc1SCS(=O)(=O)NCCc1c(CCOc2ccc(C(=O)O)cc2)c2cc(Cl)ccc2n1C(c1ccccc1)c1ccccc1 [Example 83]	450
CC(C)Oc1cc(OCCc2c(CCNS(=O)(=O)Cc3ccc(Cl)c(Cl)c3)n(C(c3ccccc3)c3ccccc3)c3ccc(Cl)cc23)ccc1C(=O)O [Example 300, 4-{2-[1-benzhydryl-5-chloro-2-(2-{[(3,4-dichlorobenzyl)sulfonyl]amino}ethyl)-1H-indol-3-yl]ethoxy}-2-isopropoxybenzoic acid]	> 2000

Test system: not given
Experiment: not given
Details: not given

Compound	melting point [°C]
O=C(O)c1ccc(OCCc2c(CCNS(=O)(=O)Cc3ccc(Cl)c(Cl)c3)n(C(c3ccccc3)c3ccccc3)c3ccc(Cl)cc23)cc1F [Example 296, 4-{2-[1-benzhydryl-5-chloro-2-(2-{[(3,4-dichlorobenzyl)sulfonyl]amino}ethyl)-1H-indol-3-yl]ethoxy}-2-fluorobenzoic acid]	117 to 119
O=C(O)c1ccc(OCCc2c(CCNS(=O)(=O)Cc3ccccc3Cl)n(C(c3ccccc3)c3ccccc3)c3ccc(Cl)cc23)cc1F [Example 297, 4-{2-[1-benzhydryl-5-chloro-2-(2-{[(2-chlorobenzyl)sulfonyl]amino}ethyl)-1H-indol-3-yl]ethoxy}-2-fluorobenzoic acid]	132 to 135
CC(C)(Cc1ccc(S(=O)(=O)CCc2c(CCNS(=O)(=O)Cc3ccc(Cl)c(Cl)c3)n(C(c3ccccc3)c3ccccc3)c3ccc(Cl)cc23)cc1)C(=O)O [Example 298, 3-[4-({2-[1-benzhydryl-5-chloro-2-(2-{[(3,4-dichlorobenzyl)sulfonyl]amino}ethyl)-1H-indol-3-yl]ethyl}sulfonyl)phenyl]-2,2-dimethylpropanoic acid]	207 to 208
